# Experimental data reported in US6525001B1, “Substituted pyrimidine and pyridine herbicides” (Mid-American Commercialization Corporation, priority 1997, dated 2003).
# Key:
# Type in all cases: in vivo
# [1] = tested on: dallisgrass (Paspalum dilatatum); test: Test E pre-/postemergence/post directed; set-up: key: 0 is no effect; 100 is complete control
# Description: (§1) Seeds, tubers, or plant parts of alexandergrass (Brachiaria plantaginea), annual bluegrass (Poa annua), arrowleaf sida (Sida rhombifolia), barnyardgrass (Echinochloa crus-galli), bermudagrass (Cynodon dactylon), citrus (Citrus sinensis), common chickweed (Stellaria media), common purslane (Portulaca oleracea), common ragweed (Ambrosia elatior), common groundsel (Senecio vulgaris), dallisgrass (Paspalum dilatatum), goosegrass (Eleusine indica), green foxtail (Setaria viridis), guineagrass (Panicum maximum), itchgrass (Rottboellia exaltata), johnson grass (Sorghum halepense), kochia (Kochia scoparia), large crabgrass (Digitaria sanguinalis), leafy spurge (Euphorbia esula), pitted morningglory (Ipomoea lacunosa), purple nutsedge (Cyperus rotundus), quackgrass (Agropyron repens), Russian thistle (Salsola kali), sandbur (Cenchrus echinatus), sourgrass (Trichachne insularis), Spanishneedles (Bidens bipinnata), sugarcane (Saccharum officinarum), surinam grass (Brachiaria decumbens) and tall mallow (Malva sylvestris) were planted into greenhouse pots of flats containing greenhouse planting medium. Plant species were grown grown in separate pots or individual compartments. Preemergence applications were made within one day of planting the seed or plant part. Postemergence applications were applied when the plants were in the two to four leaf stage (three to twenty cm).
# (§2) Test chemicals were formulated in a non-phytotoxic solvent mixture which included a surfactant and applied preemergence to the soil surface, postemergence to the plants or as a post directed spray to plants and soil at the base of the target species. Untreated control plants and treated plants were placed in the greenhouse and visually evaluated for injury 13 to 21 days after herbicide application. Plant response ratings, summarized in Table E, are based on a 0 to 100 scale where 0 is no injury and 100 is complete control. A dash (−) response means no test result.
# [2] = tested on: surinam grass (Brachiaria decumbens); test: Test E pre-/postemergence/post directed; set-up: key: 0 is no effect; 100 is complete control; settings: PREEMERGENCE
# Description: as §1, §2
# [3] = tested on: tall mallow (Malva sylvestris); test: Test E pre-/postemergence/post directed; set-up: key: 0 is no effect; 100 is complete control; settings: PREEMERGENCE
# Description: as §1, §2
# [4] = tested on: common purslane (Portulaca oleracea); test: Test E pre-/postemergence/post directed; set-up: key: 0 is no effect; 100 is complete control
# Description: as §1, §2
# [5] = tested on: common groundsel (Senecio vulgaris); test: Test E pre-/postemergence/post directed; set-up: key: 0 is no effect; 100 is complete control; settings: PREEMERGENCE
# Description: as §1, §2
# [6] = tested on: goosegrass (Eleusine indica); test: Test E pre-/postemergence/post directed; set-up: key: 0 is no effect; 100 is complete control
# Description: as §1, §2
# [7] = tested on: large crabgrass (Digitaria sanguinalis); test: Test E pre-/postemergence/post directed; set-up: key: 0 is no effect; 100 is complete control; settings: PREEMERGENCE
# Description: as §1, §2
# [8] = tested on: sourgrass (Trichachne insularis); test: Test E pre-/postemergence/post directed; set-up: key: 0 is no effect; 100 is complete control
# Description: as §1, §2
# [9] = tested on: guineagrass (Panicum maximum); test: Test E pre-/postemergence/post directed; set-up: key: 0 is no effect; 100 is complete control
# Description: as §1, §2
# [10] = tested on: common ragweed (Ambrosia elatior); test: Test E pre-/postemergence/post directed; set-up: key: 0 is no effect; 100 is complete control; settings: PREEMERGENCE
# Description: as §1, §2
# [11] = tested on: ladysthumb smartweed (Polygonum persicaria); test: Test C; set-up: key: 0 was no effect; 100 was complete control; settings: PREEMERGENCE
smiles,measurement,setting,value
Cc1cnc(-c2ccc(C(F)(F)F)cc2)nc1Cc1cccc(OC(F)(F)F)c1 [Compound 15],"Plant response rating, Dallisgrass","[1]; POSTEMERGENCE, Rate 125 g/ha",5
same,"Plant response rating, Dallisgrass","[1]; POSTEMERGENCE, Rate 250 g/ha",50
same,"Plant response rating, Dallisgrass","[1]; PREEMERGENCE, Rate 32 g/ha",95
same,"Plant response rating, Dallisgrass","[1]; PREEMERGENCE, Rate 64 g/ha",100
same,"Plant response rating, Dallisgrass","[1]; PREEMERGENCE, Rate 125 g/ha",100
same,"Plant response rating, Dallisgrass","[1]; PREEMERGENCE, Rate 250 g/ha",100
same,"Plant response rating, Surinam grass",[2]; Rate 125 g/ha,100
same,"Plant response rating, Surinam grass",[2]; Rate 250 g/ha,100
same,"Plant response rating, Tall Mallow",[3]; Rate 32 g/ha,98
same,"Plant response rating, Tall Mallow",[3]; Rate 64 g/ha,100
same,"Plant response rating, Tall Mallow",[3]; Rate 125 g/ha,100
same,"Plant response rating, Tall Mallow",[3]; Rate 250 g/ha,98
same,"Plant response rating, Com. purslane","[4]; POSTEMERGENCE, Rate 125 g/ha",75
same,"Plant response rating, Com. purslane","[4]; POSTEMERGENCE, Rate 250 g/ha",80
same,"Plant response rating, Com. purslane","[4]; PREEMERGENCE, Rate 32 g/ha",100
same,"Plant response rating, Com. purslane","[4]; PREEMERGENCE, Rate 64 g/ha",100
same,"Plant response rating, Com. purslane","[4]; PREEMERGENCE, Rate 125 g/ha",100
same,"Plant response rating, Com. purslane","[4]; PREEMERGENCE, Rate 250 g/ha",100
same,"Plant response rating, Com. groundsel",[5]; Rate 32 g/ha,100
same,"Plant response rating, Com. groundsel",[5]; Rate 125 g/ha,100
same,"Plant response rating, Com. groundsel",[5]; Rate 250 g/ha,100
same,"Plant response rating, Goosegrass","[6]; POSTEMERGENCE, Rate 125 g/ha",20
same,"Plant response rating, Goosegrass","[6]; POSTEMERGENCE, Rate 250 g/ha",30
same,"Plant response rating, Goosegrass","[6]; PREEMERGENCE, Rate 32 g/ha",98
same,"Plant response rating, Goosegrass","[6]; PREEMERGENCE, Rate 64 g/ha",98
same,"Plant response rating, Goosegrass","[6]; PREEMERGENCE, Rate 125 g/ha",98
same,"Plant response rating, Goosegrass","[6]; PREEMERGENCE, Rate 250 g/ha",100
same,"Plant response rating, Large crabgrass",[7]; Rate 64 g/ha,100
same,"Plant response rating, Large crabgrass",[7]; Rate 125 g/ha,100
same,"Plant response rating, Large crabgrass",[7]; Rate 250 g/ha,100
same,"Plant response rating, Sourgrass","[8]; POSTEMERGENCE, Rate 125 g/ha",20
same,"Plant response rating, Sourgrass","[8]; POSTEMERGENCE, Rate 250 g/ha",25
same,"Plant response rating, Sourgrass","[8]; PREEMERGENCE, Rate 32 g/ha",100
same,"Plant response rating, Sourgrass","[8]; PREEMERGENCE, Rate 64 g/ha",100
same,"Plant response rating, Sourgrass","[8]; PREEMERGENCE, Rate 125 g/ha",100
same,"Plant response rating, Sourgrass","[8]; PREEMERGENCE, Rate 250 g/ha",100
same,"Plant response rating, Guineagrass","[9]; POSTEMERGENCE, Rate 125 g/ha",20
same,"Plant response rating, Guineagrass","[9]; POSTEMERGENCE, Rate 250 g/ha",40
same,"Plant response rating, Guineagrass","[9]; PREEMERGENCE, Rate 32 g/ha",90
same,"Plant response rating, Guineagrass","[9]; PREEMERGENCE, Rate 64 g/ha",100
same,"Plant response rating, Guineagrass","[9]; PREEMERGENCE, Rate 125 g/ha",100
same,"Plant response rating, Guineagrass","[9]; PREEMERGENCE, Rate 250 g/ha",100
same,"Plant response rating, Com. ragweed",[10]; Rate 32 g/ha,100
same,"Plant response rating, Com. ragweed",[10]; Rate 64 g/ha,100
same,"Plant response rating, Com. ragweed",[10]; Rate 250 g/ha,100
same,"Plant response rating, Ladysthumb",[11]; Rate 35 g/ha,0
same,"Plant response rating, Ladysthumb",[11]; Rate 70 g/ha,20
same,"Plant response rating, Ladysthumb",[11]; Rate 140 g/ha,90
Cc1cnc(-n2ccc(C(F)(F)F)n2)nc1Cc1cccc(OC(F)(F)F)c1 [Compound 42],"Plant response rating, Dallisgrass","[1]; PREEMERGENCE, Rate 32 g/ha",70
same,"Plant response rating, Dallisgrass","[1]; PREEMERGENCE, Rate 64 g/ha",95
same,"Plant response rating, Dallisgrass","[1]; PREEMERGENCE, Rate 125 g/ha",100
same,"Plant response rating, Dallisgrass","[1]; PREEMERGENCE, Rate 250 g/ha",100
same,"Plant response rating, Surinam grass",[2]; Rate 125 g/ha,100
same,"Plant response rating, Surinam grass",[2]; Rate 250 g/ha,100
same,"Plant response rating, Tall Mallow",[3]; Rate 32 g/ha,98
same,"Plant response rating, Tall Mallow",[3]; Rate 64 g/ha,98
same,"Plant response rating, Tall Mallow",[3]; Rate 125 g/ha,98
same,"Plant response rating, Tall Mallow",[3]; Rate 250 g/ha,100
same,"Plant response rating, Com. purslane","[4]; PREEMERGENCE, Rate 32 g/ha",100
same,"Plant response rating, Com. purslane","[4]; PREEMERGENCE, Rate 64 g/ha",100
same,"Plant response rating, Com. purslane","[4]; PREEMERGENCE, Rate 125 g/ha",100
same,"Plant response rating, Com. purslane","[4]; PREEMERGENCE, Rate 250 g/ha",100
same,"Plant response rating, Com. groundsel",[5]; Rate 64 g/ha,100
same,"Plant response rating, Com. groundsel",[5]; Rate 125 g/ha,100
same,"Plant response rating, Com. groundsel",[5]; Rate 250 g/ha,100
same,"Plant response rating, Goosegrass","[6]; PREEMERGENCE, Rate 32 g/ha",98
same,"Plant response rating, Goosegrass","[6]; PREEMERGENCE, Rate 64 g/ha",100
same,"Plant response rating, Goosegrass","[6]; PREEMERGENCE, Rate 125 g/ha",100
same,"Plant response rating, Goosegrass","[6]; PREEMERGENCE, Rate 250 g/ha",100
same,"Plant response rating, Large crabgrass",[7]; Rate 125 g/ha,100
same,"Plant response rating, Large crabgrass",[7]; Rate 250 g/ha,100
same,"Plant response rating, Sourgrass","[8]; PREEMERGENCE, Rate 32 g/ha",100
same,"Plant response rating, Sourgrass","[8]; PREEMERGENCE, Rate 64 g/ha",100
same,"Plant response rating, Sourgrass","[8]; PREEMERGENCE, Rate 125 g/ha",100
same,"Plant response rating, Sourgrass","[8]; PREEMERGENCE, Rate 250 g/ha",100
same,"Plant response rating, Guineagrass","[9]; PREEMERGENCE, Rate 32 g/ha",95
same,"Plant response rating, Guineagrass","[9]; PREEMERGENCE, Rate 64 g/ha",95
same,"Plant response rating, Guineagrass","[9]; PREEMERGENCE, Rate 125 g/ha",100
same,"Plant response rating, Guineagrass","[9]; PREEMERGENCE, Rate 250 g/ha",100
same,"Plant response rating, Ladysthumb",[11]; Rate 35 g/ha,90
same,"Plant response rating, Ladysthumb",[11]; Rate 70 g/ha,85
same,"Plant response rating, Ladysthumb",[11]; Rate 140 g/ha,95
